Patent publication US20240024350A1, “ANTI-CANCER COMPOSITION CONTAINING AURANOFIN AND MERCAPTO COMPOUND AND USE THEREOF” (SUN YAT-SEN UNIVERSITY, priority 2020, published 2024)
Where two headings read alike, the source gives them in different places.

Experiments:
[1] = test system: colon cancer cell HCT116 xenograft; assay: Mouse tumor model, HCT116 xenograft; assay type: in vivo, BALB/Cann nu (Nude) mice; conditions: HCT116 xenograft in nude mice; intraperitoneal once a day; auranofin 3 mg/kg/day, mercapto compound (β-mercaptoethanol or TGTA) 40 mg/kg/day
Experimental: Establishment of mouse tumor model: 2 million colon cancer cell HCT116 cells suspended in PBS were injected subcutaneously into the dorsal side of 5-7 week-old female BALB/Cann nu (Nude) mice to establish a xenograft model.
When the tumor volume reached about 50 mm^3 (3-4 days after tumor inoculation), mice were randomly divided into a control group and a treatment group, the control group was treated with corn oil, the treatment group was intraperitoneally injected with auranofin (3 mg/kg mouse body weight/day) in combination with various mercapto compounds (β-mercaptoethanol or TGTA, 40 mg/kg mouse body weight/day) once a day. When the tumor volume grew to 1000 mm^3, the mice were anesthetized and then sacrificed by dislocation of the cervical spine.

[2] = test system: HepG-2 human liver cancer cells; assay: MTT colorimetric proliferation / cell survival assay, HepG-2; assay type: cell-based
Experimental: (§1) A flask with the cancer cells required for the experiment, with an original culture solution discarded, was washed for three times with 2 mL of PBS, 1 mL of pancreatin was added for digestion for 30 s, and 2 mL of a medium was added to terminate the digestion. The cells were transferred to a centrifuge tube and centrifuged at 1000 rpm for 3 min, the supernatant was discarded, and 2 mL of a medium was added and blew 10 times to be mixed uniformly. 10 μL of a cell suspension was taken for cell counting, and spread on a 96-well plate, with 5000 cells per well and 3 duplications for each compound, and then the number of cells and cell wells was calculated. The amount of required cell suspension and the number of cells for medium dilution were calculated by cell counting. 100 μL of medium was plated with 5000 cells per well, pipetted and mixed uniformly, and the cells were inoculated using a volley, placed in an incubator for culture, and marked.
(§2) (2) The cells cultured in step (1) was taken, and discarded with the original medium. Auranofin mother liquor was diluted to a diluent with final concentrations of 0, 0.78125, 1.5625, 3.125, 6.25, 12.5, 25, 50 and 100 μM, and mixed uniformly. A volley (using 3 wells) was used to draw 100 μL of dilution per well, a 96-well plate was tilted, diluents with each concentration were added in sequence to the corresponding 3 marked wells carefully to prevent poking the cells, blown and sucked about 3 times to be mixed uniformly, marked, shaken for 3 times, and put into a CO2 incubator for culture. The above steps were repeated for each auranofin diluent.
(§3) After auranofin was added for culture for 1 hour, the mother liquor of the mercapto compound was diluted into […] and mixed uniformly. A volley (using 3 wells) was used to suck 20 μL of diluent per well, the 96-well plate was tilted, the diluents of different mercapto compounds were added in sequence to the corresponding 3 marked wells carefully to prevent poking the cells, blown and sucked about 3 times to be mixed uniformly, and put back to the incubator to continue culture.
(§4) After different mercapto compounds were added to cells for 24 h, 20 μL of MTT (with a concentration of 5 mg/mL in PBS) per well was added to the 96-well plate by a volley; and incubation was carried out at 37° C. for 4 h. At the end of incubation, the MTT mixture was sucked out, and DMSO was added at 130 μL/well using a volley.
(§5) According to the results of Table 1-2, the killing effect of auranofin in combination with various compounds (with 30% FBS) on HCT116 human colon cancer cells and the killing effect of the auranofin-TGTA (50 μM) in combination with other cancer cells (lung cancer, colon cancer, breast cancer, liver cancer, cervical cancer and gastric cancer cells) were further detected by using the same method as the above.

TrxR = assay: Intracellular TrxR activity in HepG2 cells (DTNB reduction); assay type: cell-based, human; conditions: 0.5 μM auranofin alone
Experimental: HepG2 cells were used as a test subject.
The cells were inoculated into a 6-well plate at 2×10^5 cell/well and incubated for 24 h.
After the incubation, the cell culture medium was replaced with 30% FBS to simulate the high concentration mercapto environment under the normal physiological condition, and used as a control (without adding any reagents). The experimental group was added with 0.5 μM of auranofin for incubation at 37° C. for 30 min, and then added with the mercapto compound (DEDT, β-mercaptoethanol or mercaptoethylamine) for incubation for 30 min (final concentration of DMSO in the system was ≤1%). The incubated cells were washed for 3 times with PBS, added with 100 μL of icy lysis buffer (containing 50 mM of phosphate buffer with pH 7.4, 1 mM EDTA, and 0.10% Triton-X 100), and then lysed on ice for 5 min to collect the cell lysate.
100 μL of buffer (containing 50 mM of potassium phosphate with pH 7.4, 1 mM EDTA, and 0.2 mM NADPH) was added to the collected cell lysate (10 μg protein), 5,5′-dithiobis (2-nitrobenzoic acid) (DTNB, with a final concentration of 3 mM) was added to initiate a reaction, and the activity of TrxR was obtained on the basis of the increased OD value in 10 minutes (OD detection wavelength was 410 nm). Auranofin alone was the positive control sample, and the blank group was the negative control.

PCGR lung cancer cells = assay: MTT cell survival assay, PCGR; assay type: cell-based; conditions: TGTA 50 μM
Experimental: as §1, with “marked. […]” for “marked.”
as §5

[3] = test system: A549 human lung cancer cells; assay: MTT colorimetric proliferation / cell survival assay, A549; assay type: cell-based
Experimental: as §1, §2, §3, §4, §5

[4] = test system: HCT116 human colon cancer cells; assay: MTT colorimetric proliferation / cell survival assay, HCT116
[5] = test system: acute lymphocytic leukemia cell P388; conditions: mice inoculated with P388; earlier studies; cited from earlier work
[6] = test system: HCT-8 human colon adenocarcinoma cells; assay: MTT colorimetric proliferation assay, HCT-8; assay type: cell-based; conditions: containing 40 mg/mL BSA; 200 μM of added compound
Experimental: as §1
(2) The cells cultured in step (1) was taken, and discarded with the original medium. Auranofin mother liquor was diluted to a diluent with final concentrations of 0, 0.78125, 1.5625, 3.125, 6.25, 12.5, 25, 50 and 100 μM, and mixed uniformly. […]

[7] = test system: MCF-7 human breast cell cancer cells; assay: MTT colorimetric proliferation / cell survival assay, MCF-7; assay type: cell-based
Experimental: as §1, §2, §3, §4, §5

CC(=O)OC[C@H]1O[C@@H]([S-])[C@H](OC(C)=O)[C@@H](OC(C)=O)[C@@H]1OC(C)=O.CCP(CC)CC.[Au+] [Auranofin]
growth of tumors [1]: not effectively inhibited
Cell survival rate (%) HepG2 ([2]; Liver cancer, TGTA 50 μM): 87 ± 1%
IC50 ([2]; auranofin alone, without BSA/FBS, read-out: IC50 HepG2 Human liver cancer cells): 1.3 µM
IC50 ([2]; containing 40 mg/mL BSA, 200 μM of added compound, read-out: IC50 HepG-2 Human liver cancer cells): 16.6 µM
IC50 ([2]; under the normal physiological condition, auranofin alone, read-out: IC50 value, proliferation of HepG-2 human liver cancer cells): > 30 µM
IC50 ([2]; with 10% FBS, mercapto compound added 1 h after auranofin, MTT after 24 h, read-out: IC50 HepG-2 Human liver cancer cells): 3 µM
Activity of TrxR (TrxR; with 30% FBS): 63.6%
Activity of TrxR (TrxR; with 30% FBS, listed as Positive control): 63.6%
Activity of TrxR (TrxR; without FBS, relative to negative control 100%): 15.9%
Activity of TrxR (TrxR; without FBS, relative to negative control 100%, listed as Positive control): 15.9%
Cell survival rate (%) PCGR (PCGR lung cancer cells): 37 ± 4%
Cell survival rate (%) A549 ([3]; Lung cancer, TGTA 50 μM): 81 ± 7%
IC50 ([3]; auranofin alone, without BSA/FBS, read-out: IC50 A549 Human lung cancer cells): 4.2 µM
IC50 ([3]; containing 40 mg/mL BSA, 200 μM of added compound, read-out: IC50 A549 Human lung cancer cells): 70.5 µM
IC50 ([3]; under the normal physiological condition, auranofin alone, read-out: IC50 value, proliferation of A549 human lung cancer cells): > 30 µM
IC50 ([3]; with 10% FBS, mercapto compound added 1 h after auranofin, MTT after 24 h, read-out: IC50 A549 Human lung cancer cells): 12.9 µM
Cell survival rate (%) HCT116 ([4]; colon cancer, TGTA 50 μM): 75 ± 5%
Cell survival rate after addition of 10 μM auranofin (%) ([4]; compound plus 10 μM auranofin, with 30% FBS, 50 μM for TGTA, β-mercaptoethanol, mercaptoethylamine, DEDT, listed as Auranofin = auranofin alone): 75 ± 5%
IC50 ([4]; read-out: IC50 HCT116 Human colon cancer cells, auranofin alone, without BSA/FBS): 1 µM
IC50 ([4]; read-out: IC50 HCT116 Human colon cancer cells, with 10% FBS, mercapto compound added 1 h after auranofin, MTT after 24 h): 3.4 µM
IC50 ([4]; read-out: IC50 HCTI16 Human colon cancer cells, containing 40 mg/mL BSA, 200 μM of added compound): 30 µM
IC50 ([4]; read-out: IC50 value, proliferation of HCT116 human colon cancer cells, under the normal physiological condition, auranofin alone): > 30 µM
life span of mice [5]: effectively prolong the life span
IC50 [6]: 33.2 µM
IC50 ([7]; auranofin alone, without BSA/FBS, read-out: IC50 MCF-7 Human breast cell cancer cells): 3.4 µM
Cell survival rate (%) MCF-7 ([7]; breast cancer, TGTA 50 μM): 80 ± 2%
IC50 ([7]; containing 40 mg/mL BSA, 200 μM of added compound, read-out: IC50 MCF-7 Human breast cell cancer cells): 39.7 µM
IC50 ([7]; under the normal physiological condition, auranofin alone, read-out: IC50 value, proliferation of MCF-7 human breast cell cancer cells): > 30 µM
IC50 ([7]; with 10% FBS, mercapto compound added 1 h after auranofin, MTT after 24 h, read-out: IC50 MCF-7 Human breast cell cancer cells): 5.7 µM
